According to the supplement of paper PMC10307832:

Compound: CN(C/C=C/C1=CC=C(C=C1)Cl)CC2=CC=CC=C2N(CCO)S(=O)(=O)C3=CC=C(C=C3)OC [KN-93]
Assay: relative viability (nuclei count vs DMSO), 5 days (fraction); higher = more cells survive
Method in brief: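 Lung cancer cell lines were seeded into 1536-well plates, kept overnight at 37 °C and pinned with five library-drug doses (not always all listed) spaced by √10. After 5 days, nuclei were Hoechst-stained, imaged at 4× and counted with MetaXpress. Viability is treated-well nuclei over vehicle-well nuclei, taken as a median across plates. Plates needed control CV below 25% and at least one doubling.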

NCI-H650
relative viability (0.08 µM): 1.01
relative viability (0.253 µM): 1.1
relative viability (2.53 µM): 1.11
relative viability (8 µM): 0.598

NCI-H661
relative viability (0.08 µM): 0.938
relative viability (0.253 µM): 1.02
relative viability (2.53 µM): 0.968
relative viability (8 µM): 0.583

NCI-H727
relative viability (0.08 µM): 1.03
relative viability (0.253 µM): 0.833
relative viability (2.53 µM): 1.02
relative viability (8 µM): 0.649

NCI-H838
relative viability (0.08 µM): 0.935
relative viability (0.253 µM): 0.883
relative viability (2.53 µM): 1.02
relative viability (8 µM): 0.908

NCI-H1355
relative viability (0.08 µM): 0.834
relative viability (0.253 µM): 0.891
relative viability (2.53 µM): 1.06
relative viability (8 µM): 0.724

NCI-H1395
relative viability (0.08 µM): 0.965
relative viability (0.253 µM): 0.969
relative viability (2.53 µM): 0.914
relative viability (8 µM): 0.571

NCI-H1437
relative viability (0.08 µM): 1.03
relative viability (0.253 µM): 1.09
relative viability (2.53 µM): 0.895
relative viability (8 µM): 0.584

NCI-H1563
relative viability (0.08 µM): 0.967
relative viability (0.253 µM): 0.936
relative viability (2.53 µM): 0.88
relative viability (8 µM): 0.758

NCI-H1650
relative viability (0.08 µM): 0.796
relative viability (0.253 µM): 0.808
relative viability (2.53 µM): 0.941
relative viability (8 µM): 0.569

NCI-H1651
relative viability (0.08 µM): 0.932
relative viability (0.253 µM): 1.07
relative viability (2.53 µM): 1.09
relative viability (8 µM): 0.865

NCI-H1666
relative viability (0.08 µM): 0.969
relative viability (0.253 µM): 0.921
relative viability (2.53 µM): 0.995
relative viability (8 µM): 0.875

NCI-H1703
relative viability (0.08 µM): 0.871
relative viability (0.253 µM): 0.89
relative viability (2.53 µM): 0.841
relative viability (8 µM): 0.459

NCI-H1734
relative viability (0.08 µM): 0.942
relative viability (0.253 µM): 1.15
relative viability (2.53 µM): 1.14
relative viability (8 µM): 0.668

NCI-H1755
relative viability (0.08 µM): 0.915
relative viability (0.253 µM): 1.03
relative viability (2.53 µM): 1.03
relative viability (8 µM): 0.758

NCI-H1792
relative viability (0.08 µM): 0.783
relative viability (0.253 µM): 0.83
relative viability (2.53 µM): 0.948
relative viability (8 µM): 0.703

NCI-H1793
relative viability (0.08 µM): 0.742
relative viability (0.253 µM): 0.984
relative viability (2.53 µM): 1.11
relative viability (8 µM): 0.264

NCI-H1915
relative viability (0.08 µM): 0.952
relative viability (0.253 µM): 1.24
relative viability (2.53 µM): 0.993
relative viability (8 µM): 0.947

NCI-H1944
relative viability (0.08 µM): 0.885
relative viability (0.253 µM): 0.885
relative viability (2.53 µM): 0.942
relative viability (8 µM): 0.803

NCI-H1975
relative viability (0.08 µM): 0.886
relative viability (0.253 µM): 0.942
relative viability (2.53 µM): 0.945
relative viability (8 µM): 0.706

NCI-H1993
relative viability (0.08 µM): 0.973
relative viability (0.253 µM): 0.921
relative viability (2.53 µM): 1.04
relative viability (8 µM): 0.772

NCI-H2009
relative viability (0.08 µM): 1.01
relative viability (0.253 µM): 1.05
relative viability (2.53 µM): 0.922
relative viability (8 µM): 0.603

NCI-H2023
relative viability (0.08 µM): 0.906
relative viability (0.253 µM): 1.01
relative viability (2.53 µM): 1.08
relative viability (8 µM): 0.534

NCI-H2085
relative viability (0.08 µM): 0.951
relative viability (0.253 µM): 1.01
relative viability (2.53 µM): 1.05
relative viability (8 µM): 0.81

NCI-H2087
relative viability (0.08 µM): 0.788
relative viability (0.253 µM): 1.13
relative viability (2.53 µM): 1.12
relative viability (8 µM): 0.533

NCI-H2126
relative viability (0.08 µM): 0.96
relative viability (0.253 µM): 0.887
relative viability (2.53 µM): 1.08
relative viability (8 µM): 0.902

NCI-H2170
relative viability (0.08 µM): 0.761
relative viability (0.253 µM): 1.03
relative viability (2.53 µM): 1.01
relative viability (8 µM): 0.676

NCI-H2228
relative viability (0.08 µM): 0.904
relative viability (0.253 µM): 1.27
relative viability (2.53 µM): 1.41
relative viability (8 µM): 0.711

NCI-H2342
relative viability (0.08 µM): 0.911
relative viability (0.253 µM): 0.959
relative viability (2.53 µM): 0.977
relative viability (8 µM): 0.818

NCI-H2347
relative viability (0.08 µM): 1.03
relative viability (0.253 µM): 1.11
relative viability (2.53 µM): 1.08
relative viability (8 µM): 0.797

NCI-H2405
relative viability (0.08 µM): 1.03
relative viability (0.253 µM): 1.02
relative viability (2.53 µM): 1.03
relative viability (8 µM): 0.728

NCI-H3122
relative viability (0.08 µM): 0.972
relative viability (0.253 µM): 1.02
relative viability (2.53 µM): 1.07
relative viability (8 µM): 0.931

PC-3 [JPC-3]
relative viability (0.08 µM): 1
relative viability (0.253 µM): 1.11
relative viability (2.53 µM): 1.01
relative viability (8 µM): 0.866

PC-14
relative viability (0.08 µM): 0.943
relative viability (0.253 µM): 1.04
relative viability (2.53 µM): 1.2
relative viability (8 µM): 0.92

RERF-LC-KJ
relative viability (0.08 µM): 0.915
relative viability (0.253 µM): 1.05
relative viability (2.53 µM): 0.967
relative viability (8 µM): 0.693

SK-LU-1
relative viability (0.08 µM): 0.8
relative viability (0.253 µM): 1.26
relative viability (2.53 µM): 1.16
relative viability (8 µM): 0.759

SK-MES-1
relative viability (0.08 µM): 0.888
relative viability (0.253 µM): 0.981
relative viability (2.53 µM): 1.07
relative viability (8 µM): 0.766

SW 1573
relative viability (0.08 µM): 0.862
relative viability (0.253 µM): 1.13
relative viability (2.53 µM): 1.02
relative viability (8 µM): 0.514

UMC-11
relative viability (0.08 µM): 0.903
relative viability (0.253 µM): 1.14
relative viability (2.53 µM): 1.14
relative viability (8 µM): 0.374
